For 26 compounds, IC50 results are on record in patent US11174251B2, “Compositions and methods for inhibition of the JAK pathway” (Rigel Pharmaceuticals, Inc., priority 2010, dated 2021).

Where a name gives a salt, the structure may show the parent alone. Bounds are passed on as bounds.

In the assay the target is T1, JAK3 (Homo sapiens, UniProt P52333).
T1 construct: The Ramos B-cell line was acquired from ATCC (ATCC Catalog No. CRL-1596); host or cells: Ramos B-cell line (human)
T1 sequence (P52333 1-1124): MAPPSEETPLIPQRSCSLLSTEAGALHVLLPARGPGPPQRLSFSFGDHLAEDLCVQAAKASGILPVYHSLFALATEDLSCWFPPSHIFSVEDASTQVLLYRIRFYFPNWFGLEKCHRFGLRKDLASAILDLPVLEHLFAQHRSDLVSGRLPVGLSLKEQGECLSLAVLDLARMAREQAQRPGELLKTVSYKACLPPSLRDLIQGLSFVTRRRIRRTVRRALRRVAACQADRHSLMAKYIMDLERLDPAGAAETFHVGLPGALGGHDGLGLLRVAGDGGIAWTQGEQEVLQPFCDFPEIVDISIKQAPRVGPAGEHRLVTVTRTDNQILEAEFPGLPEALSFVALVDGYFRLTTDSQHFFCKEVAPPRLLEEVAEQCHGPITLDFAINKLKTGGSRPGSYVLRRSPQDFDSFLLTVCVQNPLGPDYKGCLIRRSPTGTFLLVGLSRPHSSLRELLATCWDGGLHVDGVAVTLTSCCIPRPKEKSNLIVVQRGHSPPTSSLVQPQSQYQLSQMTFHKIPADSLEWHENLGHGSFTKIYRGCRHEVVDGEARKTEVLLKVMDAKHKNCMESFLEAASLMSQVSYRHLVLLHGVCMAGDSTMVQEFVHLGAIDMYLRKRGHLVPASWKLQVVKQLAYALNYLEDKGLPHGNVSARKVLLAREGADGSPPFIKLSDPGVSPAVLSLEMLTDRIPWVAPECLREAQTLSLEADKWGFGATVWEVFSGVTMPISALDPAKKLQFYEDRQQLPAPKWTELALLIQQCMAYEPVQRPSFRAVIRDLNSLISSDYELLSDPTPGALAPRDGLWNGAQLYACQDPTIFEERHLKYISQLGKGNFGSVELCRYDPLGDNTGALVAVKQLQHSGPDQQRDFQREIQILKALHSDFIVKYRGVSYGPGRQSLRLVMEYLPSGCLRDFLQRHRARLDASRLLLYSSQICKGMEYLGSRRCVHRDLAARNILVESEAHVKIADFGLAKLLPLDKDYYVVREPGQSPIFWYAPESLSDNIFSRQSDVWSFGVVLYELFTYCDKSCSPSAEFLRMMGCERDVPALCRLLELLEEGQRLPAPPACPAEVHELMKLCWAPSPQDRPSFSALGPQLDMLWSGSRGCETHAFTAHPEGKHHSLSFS
The experiment in a line: Assay for CD23 expression on Ramos B-cells stimulated by IL-4 (Table IV: ability to inhibit JAK3 activity). In kind it is cell-based. Particulars: tested under conditions described in Example 3 (so in the source). A digest of the protocol: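 Human Ramos B cells in RPMI with 5% serum, pre-incubated 1 h at 37 °C with compound or DMSO, then stimulated with IL-4 (final 50 units/mL) for 20–24 h. Surface CD23 upregulation measured by FACS staining as readout of JAK1/JAK3–Stat-6 signalling.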

`COCCOc1c(C)ccc(Nc2ncc(C)c(Nc3ccc4oc(=O)[nH]c4c3)n2)c1F` [Compound I-53, 5-{2-[2-Fluoro-3-(2-methoxy-ethoxy)-4-methyl-phenylamino]-5-methyl-pyrimidin-4-ylamino}-3H-benzooxazol-2-one]: the IC50 (usually the concentration that gives 50% inhibition) is < 500 nM.
As for `COc1ccc(Nc2ncc(C)c(Nc3ccc4oc(=O)[nH]c4c3)n2)c(F)c1OC` [Compound I-50, 5-[2-(2-Fluoro-3,4-dimethoxy-phenylamino)-5-methyl-pyrimidin-4-ylamino]-3H-benzooxazol-2-one], the figure is < 500 nM; as for `COc1ccc(Nc2ncc(F)c(Nc3ccc4oc(=O)[nH]c4c3)n2)cc1C(F)F` [Compound I-197, 5-(2-(3-(difluoromethyl)-4-methoxyphenylamino)-5-fluoropyrimidin-4-ylamino)benzo[d]oxazol-2(3H)-one formate salt], < 500 nM.
The same measure for `Cc1ccc(Nc2ncc(F)c(Nc3ccc4oc(=O)[nH]c4c3)n2)cc1` [Compound I-202, 5-(2-(p-tolylamino)-5-fluoropyrimidin-4-ylamino)benzo[d]oxazol-2(3H)-one trifluoroacetate salt]: 500 to 5000 nM; for `O=C1CCCc2cc(Nc3ncc(F)c(Nc4ccc5oc(=O)[nH]c5c4)n3)ccc2N1` [II-27, 7-(4-(2,3-dihydro-2-oxobenzo[d]oxazol-5-ylamino)-5-fluoropyrimidin-2-ylamino)-4,5-dihydro-1H-benzo[b]azepin-2(3H)-one trifluoroacetate salt]: < 500 nM.
As for `Cc1cnc(Nc2cc(C)c(C)c(C)c2)nc1Nc1cc(CN2CCN(C)CC2)c2oc(=O)[nH]c2c1` [Compound I-93, 5-(2-(3,4,5-trimethylphenylamino)-5-methylpyrimidin-4-ylamino)-7-((4-methylpiperazin-1-yl)methyl)benzo[d]oxazol-2(3H)-one], the figure is 500 to 5000 nM; as for `COc1c(Br)ccc(Nc2ncc(C)c(Nc3ccc4oc(=O)[nH]c4c3)n2)c1F` [Compound I-27, 5-[2-(4-Bromo-2-fluoro-3-methoxy-phenylamino)-5-methyl-pyrimidin-4-ylamino]-3H-benzooxazol-2-one], < 500 nM; as for `Cc1cnc(Nc2cc(C)c(C(=O)OCc3ccccc3)c(C)c2)nc1Nc1ccc2oc(=O)[nH]c2c1` [Compound I-141, N2-(4-benzyloxycarbonyl-3,5-dimethyl)phenyl-5-methyl-N4-(2-oxo-2,3-dihydro-1,3-benzoxazol-5-yl)-2,4-pyrimidinediamine], < 500 nM.
`COc1cccc(Nc2nccc(Nc3ccc4oc(=O)[nH]c4c3)n2)c1F` [Compound I-23, 5-(2-(2-fluoro-3-methoxyphenylamino)pyrimidin-4-ylamino)benzo[d]oxazol-2(3H)-one] gave an IC50 of 500 to 5000 nM.
As to `O=C(Nc1ccccc1)c1ccc(Nc2ncc(F)c(Nc3ccc4oc(=O)[nH]c4c3)n2)cc1C(F)(F)F` [Compound I-166, 4-(5-fluoro-4-(2-oxo-2,3-dihydrobenzo[d]oxazol-5-ylamino)pyrimidin-2-ylamino)-N-phenyl-2-(trifluoromethyl)benzamide formate salt], the IC50 was < 500 nM.
The same measure for `CN1C(=O)CCCc2cc(Nc3ncc(F)c(Nc4ccc5oc(=O)[nH]c5c4)n3)ccc21` [II-28, 7-(4-(2,3-dihydro-2-oxobenzo[d]oxazol-5-ylamino)-5-fluoropyrimidin-2-ylamino)-4,5-dihydro-1-methyl-1H-benzo[b]azepin-2(3H)-one trifluoroacetate salt]: < 500 nM.
As for `CC(C)(C)c1ccc(Nc2ncc(F)c(Nc3ccc4oc(=O)[nH]c4c3)n2)cc1` [Compound I-201, 5-(2-(4-tert-butylphenylamino)-5-fluoropyrimidin-4-ylamino)benzo[d]oxazol-2(3H)-one trifluoroacetate salt], the figure is 500 to 5000 nM; as for `Cc1cnc(Nc2cc(C)c(C(=O)OC(C)(C)C)c(C)c2)nc1Nc1ccc2oc(=O)[nH]c2c1` [Compound I-150, N2-(4-tert-butoxycarbonyl-3,5-dimethyl)phenyl-5-methyl-N4-(2-oxo-2,3-dihydro-1,3-benzoxazol-5-yl)-2,4-pyrimidinediamine], < 500 nM.
The same measure for `Cc1cc(Nc2ncc(Cl)c(Nc3ccc4oc(=O)[nH]c4c3)n2)cc(C)c1C#N` [Compound I-69, 4-(5-chloro-4-(2-oxo-2,3-dihydrobenzo[d]oxazol-5-ylamino)pyrimidin-2-ylamino)-2,6-dimethylbenzonitrile] trifluoroacetate salt]: < 500 nM; for `Cc1cnc(Nc2cc(C)c(C)c(C)c2)nc1Nc1cc(CN(C)C)c2oc(=O)[nH]c2c1` [Compound I-89, 5-(2-(3,4,5-trimethylphenylamino)-5-methylpyrimidin-4-ylamino)-7-((dimethylamino)methyl)benzo[d]oxazol-2(3H)-one ditrifluoroacetate salt]: 500 to 5000 nM.
Regarding `O=C(NC1CC1)c1ccc(Nc2ncc(F)c(Nc3ccc4oc(=O)[nH]c4c3)n2)cc1C(F)(F)F` [Compound I-165, N-cyclopropyl-4-(5-fluoro-4-(2-oxo-2,3-dihydrobenzo[d]oxazol-5-ylamino)pyrimidin-2-ylamino)-2-(trifluoromethyl)benzamide formate salt], the IC50 was < 500 nM.
On to `O=C1COc2cc(Nc3ncc(F)c(Nc4ccc5oc(=O)[nH]c5c4)n3)ccc2N1` [II-25, 7-(4-(2,3-dihydro-2-oxobenzo[d]oxazol-5-ylamino)-5-fluoropyrimidin-2-ylamino)-2H-benzo[b][1,4]oxazin-3(4H)-one formate salt], for which the IC50 was < 500 nM.
The same measure for `[2H]C([2H])([2H])c1c(C)cc(Nc2ncc(Cl)c(Nc3ccc4oc(=O)[nH]c4c3)n2)cc1C` [Compound I-36, 5-(5-chloro-2-(3,5-dimethyl-4-d3-methyl)phenylamino)pyrimidin-4-ylamino)benzo[d]oxazol-2(3H)-one trifluoroacetate salt]: < 500 nM; for `NS(=O)(=O)c1cccc(Nc2ncc(F)c(Nc3cc(F)c4oc(=O)[nH]c4c3)n2)c1` [Compound I-174, 3-(5-fluoro-4-(7-fluoro-2-oxo-2,3-dihydrobenzo[d]oxazol-5-ylamino)pyrimidin-2-ylamino)benzenesulfonamide trifluoroacetate salt]: < 500 nM.
As for `Cc1cnc(Nc2cc(C)c(C#N)c(C)c2)nc1Nc1ccc2oc(=O)[nH]c2c1` [Compound I-64, 2,6-Dimethyl-4-[5-methyl-4-(2-oxo-2,3-dihydro-benzooxazol-5-ylamino)-pyrimidin-2-ylamino]-benzonitrile trifluoroacetate salt], the figure is < 500 nM; as for `CCOc1cc(Nc2ncc(C)c(Nc3ccc4oc(=O)[nH]c4c3)n2)cc(C)c1C` [Compound I-103, 5-(2-(3-ethoxy-4,5-dimethylphenylamino)-5-methylpyrimidin-4-ylamino)benzo[d]oxazol-2(3H)-one ditrifluoroacetate salt], < 500 nM.
The same measure for `COc1cccc(Nc2ncc(Cl)c(Nc3ccc4oc(=O)[nH]c4c3)n2)c1F` [Compound I-21, 5-(5-chloro-2-(2-fluoro-3-methoxyphenylamino)pyrimidin-4-ylamino)benzo[d]oxazol-2(3H)-one trifluoroacetate salt]: < 500 nM.
With `Cc1cc(C)nc(Nc2ncc(C)c(Nc3ccc4oc(=O)[nH]c4c3)n2)c1` [II-15, N2-(4,6-dimethylpyridin-2-yl)-5-methyl-N4-(2-oxo-2,3-dihydro-1,3-benzoxazol-5-yl)-2,4-pyrimidinediamine], the IC50 fell in the range of 500 to 5000 nM.
The same measure for `CCc1ccc(Nc2ncc(Cl)c(Nc3ccc4oc(=O)[nH]c4c3)n2)c(F)c1OC` [Compound I-71, 5-(5-chloro-2-(4-ethyl-2-fluoro-3-methoxyphenylamino)pyrimidin-4-ylamino)benzo[d]oxazol-2(3H)-one trifluoroacetate salt]: < 500 nM; for `C#Cc1cccc(Nc2ncc(C)c(Nc3ccc4oc(=O)[nH]c4c3)n2)c1` [Compound I-31, 5-[2-(3-Ethynyl-phenylamino)-5-methyl-pyrimidin-4-ylamino]-3H-benzooxazol-2-one]: < 500 nM.
As for `Cc1cc(Nc2ncc([N+](=O)[O-])c(Nc3ccc4oc(=O)[nH]c4c3)n2)cc(C)c1C` [Compound I-42, 5-(5-nitro-2-(3,4,5-trimethylphenylamino)pyrimidin-4-ylamino)benzo[d]oxazol-2(3H)-one trifluoroacetate salt], the figure is > 10000 nM.
